In brackets after ≈: the same amount, converted by molar mass.
Columns and labels:
[1] = target: T1, AcrB efflux pump in E. coli BW25113 (Escherichia coli, UniProt P31224); experiment: Nile red efflux assay (whole-cell competition); assay type: cell-based
T1 construct: endogenous in cells; host or cells: E. coli BW25113 (wild type)
Method: The Nile red assay is adopted from Bohnert et al.[18]. An overnight culture of E. coli strain BW25113 is harvested and is resuspended in 20 mM potassium phosphate buffer (pH 7.0) containing 1 mM MgCl2 (PPB). The cells are adjusted to an A660 of 1.0 in PPB and aliquoted into glass tubes (2 ml each). Carbonylcyanide-m-chlorophenylhydrazone (CCCP; a protonophore that uncouples the electron transport chain and thus inhibits AcrB mediated efflux) is added to a final concentration of 10 µM (5 mM stock solution in 50% DMSO) and incubated for 15 minutes before adding the potential competitor at desired concentrations. Nile red is then added (stock solution of 5 mM in 10% dimethyl formamide-90% ethanol [vol/vol]) to a final concentration of 5 µM. The cell suspension is incubated at room temperature on a shaker for 3 hours. The cells are harvested and resuspended in 2 ml PPB in the presence of the competitor. The cell suspension is aliquoted in a fluorimeter cuvette, to which, 100 µl of 1 M Glucose is added to activate the electron transport chain. The rate of efflux is measured by Tefflux50, it is the time taken for 50% of Nile red to be effluxed out in presence of the compounds. The fluorescence is measured (Excitation 552 nm, Emission 636 nm) for 200 seconds.

[2] = system: E. coli clinical isolates; experiment: MIC on panel of E. coli clinical isolates; assay type: cell-based

T1 sequence (P0AE06 25-397): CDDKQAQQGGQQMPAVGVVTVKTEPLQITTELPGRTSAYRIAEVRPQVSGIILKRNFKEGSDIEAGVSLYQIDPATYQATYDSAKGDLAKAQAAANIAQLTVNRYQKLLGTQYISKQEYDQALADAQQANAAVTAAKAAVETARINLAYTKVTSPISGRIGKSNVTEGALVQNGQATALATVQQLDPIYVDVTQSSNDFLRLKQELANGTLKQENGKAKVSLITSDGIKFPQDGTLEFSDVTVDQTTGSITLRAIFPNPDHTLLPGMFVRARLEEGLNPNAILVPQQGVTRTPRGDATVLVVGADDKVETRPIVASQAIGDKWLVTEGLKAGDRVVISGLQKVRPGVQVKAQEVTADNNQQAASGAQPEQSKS
T1 sequence (P31224 whole entry): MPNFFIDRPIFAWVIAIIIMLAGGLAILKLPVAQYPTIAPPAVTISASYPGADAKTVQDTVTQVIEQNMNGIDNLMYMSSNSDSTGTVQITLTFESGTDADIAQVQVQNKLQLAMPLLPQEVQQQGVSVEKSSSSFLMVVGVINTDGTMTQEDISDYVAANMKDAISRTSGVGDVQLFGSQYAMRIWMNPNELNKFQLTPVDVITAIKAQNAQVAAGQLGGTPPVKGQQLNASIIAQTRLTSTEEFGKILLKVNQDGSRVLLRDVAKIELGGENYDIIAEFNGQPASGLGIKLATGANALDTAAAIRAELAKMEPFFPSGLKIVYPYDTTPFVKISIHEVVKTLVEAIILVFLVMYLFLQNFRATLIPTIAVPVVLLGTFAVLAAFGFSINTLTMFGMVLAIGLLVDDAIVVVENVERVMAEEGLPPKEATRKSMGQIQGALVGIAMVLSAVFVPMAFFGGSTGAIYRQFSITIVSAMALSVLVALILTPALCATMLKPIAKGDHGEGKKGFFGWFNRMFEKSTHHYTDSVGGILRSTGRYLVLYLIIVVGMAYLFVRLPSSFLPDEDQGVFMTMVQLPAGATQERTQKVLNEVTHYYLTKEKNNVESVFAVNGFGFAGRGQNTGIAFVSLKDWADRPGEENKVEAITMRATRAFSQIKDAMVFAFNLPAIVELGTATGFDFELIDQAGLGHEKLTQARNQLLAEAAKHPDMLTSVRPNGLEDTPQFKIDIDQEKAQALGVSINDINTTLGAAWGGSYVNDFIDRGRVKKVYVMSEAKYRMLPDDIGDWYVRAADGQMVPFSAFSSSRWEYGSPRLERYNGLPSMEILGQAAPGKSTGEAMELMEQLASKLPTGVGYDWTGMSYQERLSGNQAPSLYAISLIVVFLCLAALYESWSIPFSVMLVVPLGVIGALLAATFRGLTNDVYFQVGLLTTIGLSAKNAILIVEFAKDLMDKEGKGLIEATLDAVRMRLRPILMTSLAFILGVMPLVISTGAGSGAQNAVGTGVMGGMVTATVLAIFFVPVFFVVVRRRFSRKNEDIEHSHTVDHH
T1 sequence (P02930 23-493, further chain): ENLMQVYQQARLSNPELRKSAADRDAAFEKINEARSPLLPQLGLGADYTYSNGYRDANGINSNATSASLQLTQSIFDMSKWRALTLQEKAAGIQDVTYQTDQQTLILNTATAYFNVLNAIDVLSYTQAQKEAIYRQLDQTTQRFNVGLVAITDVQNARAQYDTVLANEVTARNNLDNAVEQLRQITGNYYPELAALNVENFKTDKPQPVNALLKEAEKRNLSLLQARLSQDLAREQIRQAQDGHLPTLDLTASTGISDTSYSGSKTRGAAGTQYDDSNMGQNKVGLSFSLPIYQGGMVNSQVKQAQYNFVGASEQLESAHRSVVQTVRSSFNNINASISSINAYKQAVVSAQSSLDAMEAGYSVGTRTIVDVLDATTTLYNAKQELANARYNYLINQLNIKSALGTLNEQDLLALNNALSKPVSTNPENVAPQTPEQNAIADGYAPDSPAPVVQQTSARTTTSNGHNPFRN

Cc1sc(NC(=O)c2ccc([N+](=O)[O-])s2)nc1-c1ccccc1 [compound 7, N-(5-Methyl-4-phenylthiazol-2-yl)-5-nitrothiophene-2-carboxamide]
Tefflux50 ([1]; 1µM compound, time for 50% of Nile red to be effluxed, read for 200 seconds): 88.05 s | Tefflux50 ([1]; 9µM compound): 200 s | Tefflux50 ([1]; 27µM compound): 200 s | Tefflux50 ([1]; 81µM compound): 200 s | Tefflux50 ([1]; 100µM compound): 200 s | Tefflux50 ([1]; 200µM compound): 200 s | Tefflux50 ([1]; 400µM compound): 200 s | Concentration of compound required for complete inhibition of Nile red efflux (Tefflux50 >200 seconds) ([1]; E. coli BW25113): 9 µM

O=C1CN(/N=C/c2ccc([N+](=O)[O-])o2)C(=O)N1 [nitrofurantoin, reference compound]
MIC Range ([2]; 75 E.coli clinical isolates): 5 to 160 µg/mL | MIC50 ([2]; Escherichia coli, 75 E.coli clinical isolates, 50% clinical isolates): 20 µg/mL (≈ 84 µM) | MIC90 ([2]; Escherichia coli, 75 E.coli clinical isolates, 90% clinical isolates): 80 µg/mL (≈ 336 µM) | MIC ([2]; strain SEC001): 80 µg/mL (≈ 336 µM) | MIC ([2]; strain SEC002): 20 µg/mL (≈ 84 µM) | MIC ([2]; strain SEC003): 40 µg/mL (≈ 168 µM) | MIC ([2]; strain SEC004): 80 µg/mL (≈ 336 µM) | MIC ([2]; strain SEC005): 40 µg/mL (≈ 168 µM) | MIC ([2]; strain SEC006): 20 µg/mL (≈ 84 µM) | MIC ([2]; strain SEC007): 40 µg/mL (≈ 168 µM) | MIC ([2]; strain SEC008): 80 µg/mL (≈ 336 µM) | MIC ([2]; strain SEC011): 40 µg/mL (≈ 168 µM) | MIC ([2]; strain SEC012): 20 µg/mL (≈ 84 µM) | MIC ([2]; strain SEC013): 80 µg/mL (≈ 336 µM) | MIC ([2]; strain SEC014): 20 µg/mL (≈ 84 µM) | MIC ([2]; strain SEC015): 20 µg/mL (≈ 84 µM) | MIC ([2]; strain SEC016): 40 µg/mL (≈ 168 µM) | MIC ([2]; strain SEC017): 20 µg/mL (≈ 84 µM) | MIC ([2]; strain SEC018): 20 µg/mL (≈ 84 µM) | MIC ([2]; strain SEC019): 40 µg/mL (≈ 168 µM) | MIC ([2]; strain SEC020): 160 µg/mL (≈ 672 µM) | MIC ([2]; strain SEC021): 20 µg/mL (≈ 84 µM) | MIC ([2]; strain SEC022): 20 µg/mL (≈ 84 µM) | MIC ([2]; strain SEC023): 80 µg/mL (≈ 336 µM) | MIC ([2]; strain SEC024): 20 µg/mL (≈ 84 µM) | MIC ([2]; strain SEC025): 40 µg/mL (≈ 168 µM) | MIC ([2]; strain SEC026): 20 µg/mL (≈ 84 µM) | MIC ([2]; strain SEC028): 5 µg/mL (≈ 21 µM) | MIC ([2]; strain SEC029): 20 µg/mL (≈ 84 µM) | MIC ([2]; strain SEC031): 20 µg/mL (≈ 84 µM) | MIC ([2]; strain SEC032): 20 µg/mL (≈ 84 µM) | MIC ([2]; strain SEC033): 20 µg/mL (≈ 84 µM) | MIC ([2]; strain SEC034): 20 µg/mL (≈ 84 µM) | MIC ([2]; strain SEC035): 40 µg/mL (≈ 168 µM) | MIC ([2]; strain SEC036): 40 µg/mL (≈ 168 µM) | MIC ([2]; strain SEC037): 20 µg/mL (≈ 84 µM) | MIC ([2]; strain SEC038): 20 µg/mL (≈ 84 µM) | MIC ([2]; strain SEC039): 20 µg/mL (≈ 84 µM) | MIC ([2]; strain SEC040): 40 µg/mL (≈ 168 µM) | MIC ([2]; strain SEC041): 20 µg/mL (≈ 84 µM) | MIC ([2]; strain SEC042): 10 µg/mL (≈ 42 µM) | MIC ([2]; strain SEC043): 20 µg/mL (≈ 84 µM) | MIC ([2]; strain SEC044): 80 µg/mL (≈ 336 µM) | MIC ([2]; strain SEC045): 20 µg/mL (≈ 84 µM) | MIC ([2]; strain SEC046): 20 µg/mL (≈ 84 µM) | MIC ([2]; strain SEC047): 40 µg/mL (≈ 168 µM) | MIC ([2]; strain SEC048): 40 µg/mL (≈ 168 µM) | MIC ([2]; strain SEC049): 40 µg/mL (≈ 168 µM) | MIC ([2]; strain SEC050): 20 µg/mL (≈ 84 µM) | MIC ([2]; strain SEC051): 40 µg/mL (≈ 168 µM) | MIC ([2]; strain SEC052): 160 µg/mL (≈ 672 µM) | MIC ([2]; strain SEC053): 40 µg/mL (≈ 168 µM) | MIC ([2]; strain SEC054): 20 µg/mL (≈ 84 µM) | MIC ([2]; strain SEC055): 20 µg/mL (≈ 84 µM) | MIC ([2]; strain SEC057): 40 µg/mL (≈ 168 µM) | MIC ([2]; strain SEC058): 80 µg/mL (≈ 336 µM) | MIC ([2]; strain SEC059): 20 µg/mL (≈ 84 µM) | MIC ([2]; strain SEC060): 20 µg/mL (≈ 84 µM) | MIC ([2]; strain SEC061): 40 µg/mL (≈ 168 µM) | MIC ([2]; strain SEC062): 20 µg/mL (≈ 84 µM) | MIC ([2]; strain SEC063): 40 µg/mL (≈ 168 µM) | MIC ([2]; strain SEC064): 40 µg/mL (≈ 168 µM) | MIC ([2]; strain SEC065): 20 µg/mL (≈ 84 µM) | MIC ([2]; strain SEC067): 20 µg/mL (≈ 84 µM) | MIC ([2]; strain SEC068): 20 µg/mL (≈ 84 µM) | MIC ([2]; strain SEC069): 20 µg/mL (≈ 84 µM) | MIC ([2]; strain SEC070): 20 µg/mL (≈ 84 µM) | MIC ([2]; strain SEC071): 20 µg/mL (≈ 84 µM) | MIC ([2]; strain SEC072): 20 µg/mL (≈ 84 µM) | MIC ([2]; strain SEC073): 40 µg/mL (≈ 168 µM) | MIC ([2]; strain SEC074): 40 µg/mL (≈ 168 µM) | MIC ([2]; strain SEC075): 10 µg/mL (≈ 42 µM) | MIC ([2]; strain SEC076): 20 µg/mL (≈ 84 µM) | MIC ([2]; strain SEC077): 80 µg/mL (≈ 336 µM) | MIC ([2]; strain SEC078): 80 µg/mL (≈ 336 µM) | MIC ([2]; strain SEC079): 20 µg/mL (≈ 84 µM) | MIC ([2]; strain SEC080): 40 µg/mL (≈ 168 µM)
